Measured values as given in PubChem BioAssay (NCI).
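All cell lines were grown in 96-well plates and treated with compound for 48 hours. TGI denotes the concentration required for complete inhibition of growth.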 Where a SMILES comes first, the peptide text is derived from it. [ ]: non-standard residue; d: D form. The star is where a group is joined. hSer = N[CH](CCO)C(=O)O; Boc = CC(C)(C)OC(=O)*

Experiments:
Test in all cases: inhibition of tumour cell growth, NCI panel, 48 h
BT-549 breast = tested on: BT-549 breast
HCC-2998 colon = tested on: HCC-2998 colon
HCT-15 colon = tested on: HCT-15 colon
HL-60(TB) leukemia = tested on: HL-60(TB) leukemia
HOP-62 NSCLC = tested on: HOP-62 NSCLC
K-562 leukemia = tested on: K-562 leukemia
KM12 colon = tested on: KM12 colon
MDA-N = tested on: MDA-N
MOLT-4 leukemia = tested on: MOLT-4 leukemia
NCI-H460 lung = tested on: NCI-H460 lung
NCI/ADR-RES ovarian = tested on: NCI/ADR-RES ovarian
OVCAR-3 ovarian = tested on: OVCAR-3 ovarian
OVCAR-4 ovarian = tested on: OVCAR-4 ovarian
OVCAR-5 ovarian = tested on: OVCAR-5 ovarian
SK-MEL-2 melanoma = tested on: SK-MEL-2 melanoma
SK-MEL-28 melanoma = tested on: SK-MEL-28 melanoma
SK-OV-3 ovarian = tested on: SK-OV-3 ovarian
SN12C renal = tested on: SN12C renal
UO-31 renal = tested on: UO-31 renal
OVCAR-8 ovarian = tested on: OVCAR-8 ovarian

Compound	TGI (BT-549 breast) [µM]	TGI (HCC-2998 colon) [µM]	TGI (HCT-15 colon) [µM]	TGI (HL-60(TB) leukemia) [µM]	TGI (HOP-62 NSCLC) [µM]	TGI (K-562 leukemia) [µM]	TGI (KM12 colon) [µM]	TGI (MDA-N) [µM]	TGI (MOLT-4 leukemia) [µM]	TGI (NCI-H460 lung) [µM]	TGI (NCI/ADR-RES ovarian) [µM]	TGI (OVCAR-3 ovarian) [µM]	TGI (OVCAR-4 ovarian) [µM]	TGI (OVCAR-5 ovarian) [µM]	TGI (SK-MEL-2 melanoma) [µM]	TGI (SK-MEL-28 melanoma) [µM]	TGI (SK-OV-3 ovarian) [µM]	TGI (SN12C renal) [µM]	TGI (UO-31 renal) [µM]	TGI (OVCAR-8 ovarian) [µM]
c1cc(-c2cscc2-c2ccsc2)cs1	> 100	91.8	> 100	> 100	> 100	> 100	38	> 100	> 100	> 100	> 100	89.8	> 100	> 100	28.4	> 100	> 100	> 100	> 100	–
CC(C)(C)C1CCC2c3c([nH]c4ccccc34)C3C(=O)N(c4cc(Br)cc(Br)c4)C(=O)C3C2C1 (centres undefined)	> 100	24.7	> 100	5.82	69.6	–	> 100	> 100	38.2	74.2	40.8	–	69.7	> 100	47.5	25.9	> 100	29.1	46.2	50.2
COc1ccc(-n2c(CCCC(=O)O)nc3c2C(=O)c2ccccc2C3=O)cc1	> 100	> 100	> 100	> 100	–	> 100	> 100	> 100	> 100	> 100	> 100	92.9	> 100	> 100	> 100	> 100	> 100	> 100	> 100	> 100
CN(NC(=O)c1ccco1)C1=NCCCCN1	> 100	> 100	> 100	> 100	> 100	> 100	> 100	> 100	> 100	> 100	> 100	> 100	> 100	> 100	> 100	> 100	> 100	> 100	> 100	> 100
COCCC(NC(=O)C(CC(C)C)NC(=O)OC(C)(C)C)C(N)=O (stereo not drawn) (Boc-Leu-[hSer](Me)-NH2; configuration not given here)	> 100	> 100	> 100	> 100	> 100	> 100	> 100	> 100	> 100	> 100	> 100	> 100	> 100	–	> 100	> 100	> 100	> 100	> 100	> 100
COC(=O)C1Cc2c(C)cccc2C1=O (centres undefined)	> 100	> 100	> 100	77.8	> 100	> 100	> 100	> 100	> 100	> 100	> 100	> 100	> 100	> 100	> 100	> 100	> 100	> 100	> 100	> 100
CCOC(=O)C1(Cc2ccc(C)cc2)Cc2ccc(C)cc2C1=O (centres undefined)	80.8	> 92.7	> 100	23.6	> 100	> 41.4	> 72.3	6.42	27.7	82.4	32.5	> 100	> 100	> 100	32.9	> 100	> 100	> 100	> 100	> 96.6
Oc1ccc(-c2cc(-c3c(O)cc(O)cc3O)on2)cc1	> 100	> 100	> 100	> 100	> 100	> 100	> 100	> 100	> 100	> 100	> 100	> 100	> 100	> 100	> 100	> 100	> 100	> 100	> 100	> 100
C[N+]1(C)C2Cc3ccccc3C1Cc1ccccc12	> 100	> 100	> 100	> 100	> 100	–	> 100	> 100	> 100	> 100	> 100	> 100	> 100	> 100	> 100	> 100	> 100	> 100	> 100	> 100
COc1ccc2c(c1O)-c1c(OC)c(OC)cc3c1[C@H](C2)[N+](C)(C)CC3	> 100	> 100	> 100	> 100	–	> 100	> 100	> 100	> 100	> 100	> 100	> 100	> 100	> 100	> 100	> 100	> 100	> 100	> 100	> 100
CC(=O)N[C@@H](Cc1ccc(O)cn1)C(=O)NCc1cccc(F)c1	> 100	> 100	> 100	> 100	> 100	> 100	> 100	> 100	–	> 100	> 100	> 100	> 100	> 100	> 100	> 100	> 100	> 100	> 100	–
COc1cc2c(cc1OC)C(=O)N(c1ccc(O)cc1)C2	> 100	> 100	> 100	> 100	> 100	> 100	–	> 100	> 100	> 100	> 100	> 100	> 100	> 100	> 100	> 100	> 100	> 100	–	> 100
